Laboratory results as given in US10551389B2, “Target binding molecules identified by kinetic target-guided synthesis” (UNIVERSITY OF SOUTH FLORIDA, priority 2013, dated 2020).

Legend:
Mcl-1 = Mcl-1 (Homo sapiens, UniProt Q07820); assay: Inhibition of Mcl-1 (disruption of Mcl-1/Bim interaction); type: binding; details: for inhibition at 25 µM / % Inhibition (25 μM) Mcl-1: compound at 25 μM; for % Inhibition (50 μM) Mcl-1 / inhibition at 50 µM: compound at 50 μM
Protocol: (§1) In a subsequent study, a structurally diverse library of forty five thio acids and thirty eight sulfonyl azides (identified above) was screened in parallel against Mcl-1 and Bcl-XL using the above mentioned approach. Several potential hit combinations were identified (Table 3). All of these kinetic TGS hit compounds were synthesized (identified above and in Table 3). All the reactions were performed at 20-30 mg scale. The 9-fluorenylmethyl thioester was placed in a 2.0 mL vial and 3.5% DBU/dry DMF solution was added (per 1 μmol of thioester, 4.7 μL, of 3.5% DBU/dry DMF solution was added) and the reaction was stirred for one minute. Then the sulfonylazide (1 eq to thioester) was added to the reaction mixture and immediately bubbling was observed. After the reaction was completed (approximately one minute, monitored by LC-MS) water (200 μL) was added and the pH was adjusted to 7.0 using 1M HCl solution. The reaction mixture was extracted with DCM until there is no product in the aqueous layer (checked by TLC or LC-MS). The product was purified by flash chromatography. Testing of these acylsulfonamides has shown that the hit compounds disrupt the Bcl-XL/Bim or Mcl-1/Bim interaction (Table 3).

Bcl-XL = Bcl-XL (Homo sapiens, UniProt Q07817); assay: Inhibition of Bcl-XL (disruption of Bcl-XL/Bim interaction); type: binding; details: for inhibition at 25 µM / % Inhibition (25 μM) Bcl-XL: compound at 25 μM; for inhibition at 50 µM / % Inhibition (50 μM) Bcl-XL: compound at 50 μM
Protocol: as §1

Mcl-1, sequence (Q07820 whole entry, species assumed): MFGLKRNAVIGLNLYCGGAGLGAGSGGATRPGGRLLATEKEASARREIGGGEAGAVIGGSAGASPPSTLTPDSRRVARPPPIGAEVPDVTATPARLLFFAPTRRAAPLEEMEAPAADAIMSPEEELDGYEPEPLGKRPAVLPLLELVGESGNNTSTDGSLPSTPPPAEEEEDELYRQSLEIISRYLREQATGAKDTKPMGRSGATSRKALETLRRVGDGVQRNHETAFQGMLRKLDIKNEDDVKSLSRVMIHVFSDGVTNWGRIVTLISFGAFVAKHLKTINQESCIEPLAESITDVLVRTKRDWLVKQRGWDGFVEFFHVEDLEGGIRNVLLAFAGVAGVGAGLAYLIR
Bcl-XL, sequence (Q07817 whole entry, species assumed): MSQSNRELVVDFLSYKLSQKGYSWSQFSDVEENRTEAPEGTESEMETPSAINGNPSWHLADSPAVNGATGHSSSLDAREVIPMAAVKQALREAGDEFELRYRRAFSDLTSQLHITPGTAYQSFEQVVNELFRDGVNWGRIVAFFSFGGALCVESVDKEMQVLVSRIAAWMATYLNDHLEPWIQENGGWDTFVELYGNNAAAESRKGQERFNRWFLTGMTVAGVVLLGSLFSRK

% Inhibition (25 μM) Mcl-1 (Mcl-1) [%]	% Inhibition (50 μM) Mcl-1 (Mcl-1) [%]	% Inhibition (50 μM) Bcl-XL (Bcl-XL) [%]	Compound	further results
–	–	–	O=C(NS(=O)(=O)c1ccc(CN(CCSc2ccccc2)Cc2c(F)cccc2Cl)cc1)c1ccc(-c2ccccn2)cc1 [SZ15TA25]	IC50 (Mcl-1): 15.3 µM; inhibition at 25 µM (Mcl-1): 77.2%; inhibition at 25 µM (Bcl-XL): 43%; inhibition at 50 µM (Bcl-XL): 57.8%
14.2	16.2	9.4	CN(CCc1ccccc1)Cc1ccc(S(=O)(=O)NC(=O)c2ccc(C(c3c[nH]c4ccccc34)c3c[nH]c4ccccc34)cc2)cc1 [SZ2TA31]	% Inhibition (25 μM) Bcl-XL (Bcl-XL): 14.9%
<2.0	<2.0	–	CCOc1ccc(-c2ccc3c(c2)c(C(=O)NS(=O)(=O)c2ccc(CNCCSc4ccccc4)cc2)cn3C)cc1F [SZ6TA23]	–
4.5	<2.0	–	CC1(C)CCN(c2ccc(C(=O)NS(=O)(=O)CCN3CCc4ccccc4C3)cc2)CC1 [SZ23TA2]	–
43.9	93.6	53.4	NS(=O)(=O)c1ccc(CN(CCSc2ccccc2)Cc2ccc(S(=O)(=O)NC(=O)c3ccc(-c4ccccn4)cc3)cc2)cc1 [SZ10TA25]	% Inhibition (25 μM) Bcl-XL (Bcl-XL): 33.9%
–	–	–	COc1cccc(CN(CCSc2ccccc2)Cc2ccc(S(=O)(=O)NC(=O)c3cccc4ccccc34)cc2)c1 [SZ17TA7]	IC50 (Mcl-1): 20.1 µM; inhibition at 50 µM (Bcl-XL): 66.5%
18.8	89.2	–	O=C(NS(=O)(=O)c1ccc(-c2ccc(Oc3ccccc3)cc2)cc1)c1ccc(CCc2ccccn2)cc1 [SZ35TA17]	–
<2.0	<2.0	<2.0	COc1cc2c(cc1OC)C(c1ccccc1)N(Cc1ccc(S(=O)(=O)NC(=O)c3ccc(C(c4c[nH]c5ccccc45)c4c[nH]c5ccccc45)cc3)cc1)CC2 (centres unmarked) [SZ8TA31]	% Inhibition (25 μM) Bcl-XL (Bcl-XL): <2.0%
53.1	63.6	<2.0	CC(C)(C)c1ccc(-c2ccc(S(=O)(=O)NC(=O)c3ccc4c(ccn4Cc4ccc(C(F)(F)F)cc4C(F)(F)F)c3)cc2)cc1 [SZ11TA30]	% Inhibition (25 μM) Bcl-XL (Bcl-XL): 8.5%
27.6	63.4	20.6	NS(=O)(=O)c1ccc(CN(CCSc2ccccc2)Cc2ccc(S(=O)(=O)NC(=O)c3cccc(NCCc4ccccc4)c3)cc2)cc1 [SZ10TA44]	% Inhibition (25 μM) Bcl-XL (Bcl-XL): 9.9%
52.3	57.3	–	COc1ccccc1-c1ccc(C(=O)NS(=O)(=O)c2ccc(CN(CCSc3ccccc3)Cc3ccc(S(N)(=O)=O)cc3)cc2)cc1 [SZ10TA21]	–
26.0	80.9	–	COc1ccccc1-c1ccc(C(=O)NS(=O)(=O)c2ccc(-c3ccc(C(F)(F)F)cc3)cc2)cc1 [SZ16TA21]	–
7.2	12.4	<2.0	COc1cccc(CN(CCSc2ccccc2)Cc2ccc(S(=O)(=O)NC(=O)CCCN3C(=O)C(c4ccc(F)cc4F)=C(c4ccc(F)cc4F)C3=O)cc2)c1 [SZ17TA20]	% Inhibition (25 μM) Bcl-XL (Bcl-XL): <2.0%
53.8	40.2	<2.0	Cn1cc(C(=O)c2cccs2)c2cc(C(=O)NS(=O)(=O)c3ccc(CN(CCSc4ccccc4)Cc4ccc5c(c4)OCO5)cc3)ccc21 [SZ31TA45]	% Inhibition (25 μM) Bcl-XL (Bcl-XL): 7.2%
7.1	54.1	–	CC1(C)CCN(c2ccc(C(=O)NS(=O)(=O)c3ccc(CNc4cccc([N+](=O)[O-])c4)cc3)cc2)CC1 [SZ12TA2]	–
56.2	59.5	13.3	O=C(NS(=O)(=O)c1ccc(CN(CCSc2ccccc2)Cc2ccc3c(c2)OCO3)cc1)c1ccc(-c2ccc(F)cc2)cc1 [SZ31TA14]	% Inhibition (25 μM) Bcl-XL (Bcl-XL): 17.3%
46.8	54.0	34.6	Cn1cc(C(=O)c2cccs2)c2cc(C(=O)NS(=O)(=O)CCN(CCSc3ccccc3)Cc3ccc4c(c3)OCO4)ccc21 [SZ28TA45]	% Inhibition (25 μM) Bcl-XL (Bcl-XL): 25.7%
22.6	25.8	<2.0	O=C(NS(=O)(=O)CCN(CCSc1ccccc1)Cc1ccc2c(c1)OCO2)c1ccc(C(c2c[nH]c3ccccc23)c2c[nH]c3ccccc23)cc1 [SZ28TA31]	% Inhibition (25 μM) Bcl-XL (Bcl-XL): 8.1%
72.3	76.4	–	COc1ccc(Cc2ccc(C(=O)NS(=O)(=O)c3ccc(-c4ccc(Oc5ccccc5)cc4)cc3)cc2)c(OC)c1OC [SZ35TA24]	–
–	–	–	CC(C)(C)c1ccc(-c2ccc(S(=O)(=O)NC(=O)c3ccc(-c4ccccn4)cc3)cc2)cc1 [SZ11TA25]	inhibition at 25 µM (Mcl-1): 20.1%; inhibition at 50 µM (Mcl-1): 65.8%

% Inhibition (25 μM) Mcl-1 (Mcl-1) [%]	% Inhibition (50 μM) Mcl-1 (Mcl-1) [%]	% Inhibition (50 μM) Bcl-XL (Bcl-XL) [%]	Compound	further results
–	–	–	Cc1nc(-c2ccccc2)sc1C(=O)NS(=O)(=O)c1ccc(CN(CCSc2ccccc2)Cc2c(F)cccc2Cl)cc1 [SZ15TA3]	IC50 (Mcl-1): 5.8 µM; inhibition at 50 µM (Bcl-XL): 43%
–	–	–	O=C(NS(=O)(=O)c1ccc(CN(CCSc2ccccc2)Cc2ccc3c(c2)OCO3)cc1)c1ccc(CCc2ccccn2)cc1 [SZ31TA17]	IC50 (Mcl-1): 16.8 µM; inhibition at 25 µM (Mcl-1): 84.3%; inhibition at 50 µM (Mcl-1): 88.6%; IC50 (Bcl-XL): 31.3 µM; inhibition at 25 µM (Bcl-XL): 40.2%; inhibition at 50 µM (Bcl-XL): 77.7%
30	42.5	7.0	[N-]=[N+]=NS(=O)(=O)c1ccc(CN(CCSc2ccccc2)Cc2ccc(S(=O)(=O)NC(=O)c3ccc(-c4ccc(F)cc4)cc3)cc2)cc1 [SZ9TA14]	% Inhibition (25 μM) Bcl-XL (Bcl-XL): 8.4%
–	–	–	Cc1nc(-c2ccccc2)sc1C(=O)NS(=O)(=O)c1ccc(CN(CCSc2ccccc2)Cc2ccc(S(=O)(=O)N=[N+]=[N-])cc2)cc1 [SZ9TA3]	IC50 (Mcl-1): 22.7 µM; inhibition at 50 µM (Mcl-1): 83.1%; inhibition at 50 µM (Bcl-XL): 21.6%
–	–	–	NS(=O)(=O)c1ccc(CN(CCSc2ccccc2)Cc2ccc(S(=O)(=O)NC(=O)CCCN3C(=O)C(c4ccc(F)cc4F)=C(c4ccc(F)cc4F)C3=O)cc2)cc1 [SZ10TA20]	inhibition at 25 µM (Mcl-1): 27.8%; inhibition at 50 µM (Mcl-1): 7.6%; inhibition at 25 µM (Bcl-XL): 3.8%; inhibition at 50 µM (Bcl-XL): < 2%
–	>99.0	38.4	COc1cc(OC)cc(C(=O)NS(=O)(=O)c2ccc(CN(CCSc3ccccc3)Cc3c(F)cccc3Cl)cc2)c1 [SZ15TA5]	IC50 (Mcl-1): 13.4 µM; IC50 (Bcl-XL): 53 µM
18.8	87.2	–	Cc1nc(-c2ccccc2)sc1C(=O)NS(=O)(=O)c1ccc(-c2ccc(Oc3ccccc3)cc2)cc1 [SZ35TA3]	–
–	–	–	[N-]=[N+]=NS(=O)(=O)c1ccc(CN(CCSc2ccccc2)Cc2ccc(S(=O)(=O)NC(=O)c3ccccc3)cc2)cc1 [SZ9TA1]	IC50 (Mcl-1): 19.8 µM; inhibition at 50 µM (Bcl-XL): 79.5%
–	–	–	CC1(C)CCN(c2ccc(C(=O)NS(=O)(=O)c3ccc(CN(CCSc4ccccc4)Cc4ccc(S(N)(=O)=O)cc4)cc3)cc2)CC1 [SZ10TA2]	IC50 (Mcl-1): 15.8 µM; inhibition at 25 µM (Mcl-1): 41.7%; inhibition at 50 µM (Mcl-1): 94.7%; IC50 (Bcl-XL): 44 µM; inhibition at 50 µM (Bcl-XL): 52.1%
14.8	24.9	–	COc1cc2c(cc1OC)C(c1ccccc1)N(Cc1ccc(S(=O)(=O)NC(=O)c3ccc(N4CCC(C)(C)CC4)cc3)cc1)CC2 (centres unmarked) [SZ8TA2]	–
6.1	21.5	–	CCOc1ccc(-c2ccc3c(c2)c(C(=O)NS(=O)(=O)c2ccc(CNc4cccc([N+](=O)[O-])c4)cc2)cn3C)cc1F [SZ12TA23]	–
18.7	21.5	–	CCOc1ccc(-c2ccc3c(c2)c(C(=O)NS(=O)(=O)c2ccc(CN4CCN(c5ccccc5)CC4)cc2)cn3C)cc1F [SZ1TA23]	–
44.7	80.6	–	COc1ccccc1-c1ccc(C(=O)NS(=O)(=O)c2ccc(NCCSc3ccccc3)c([N+](=O)[O-])c2)cc1 [SZ4TA21]	–
18.1	11.4	–	O=C(NS(=O)(=O)CCN1CCC(Cc2ccccc2)CC1)c1ccc2c(ccn2Cc2ccc(C(F)(F)F)cc2C(F)(F)F)c1 [SZ24TA30]	–
–	–	–	O=C(NS(=O)(=O)c1ccc(CN(CCSc2ccccc2)Cc2c(F)cccc2Cl)cc1)c1cccc2ccccc12 [SZ15TA7]	IC50 (Mcl-1): 15.4 µM
65.1	74.1	–	COc1cccc(CN(CCSc2ccccc2)Cc2ccc(S(=O)(=O)NC(=O)c3ccc(Cc4ccc(OC)c(OC)c4OC)cc3)cc2)c1 [SZ17TA24]	–
2.8	12.4	–	NS(=O)(=O)c1ccc(CN(CCSc2ccccc2)Cc2ccc(S(=O)(=O)NC(=O)c3ccc4oc(-c5ccccc5)cc4c3)cc2)cc1 [SZ10TA41]	–
43.6	79.2	–	COc1cc2c(cc1OC)C(c1ccccc1)N(Cc1ccc(S(=O)(=O)NC(=O)c3ccc(Cc4ccc(OC)c(OC)c4OC)cc3)cc1)CC2 (centres unmarked) [SZ8TA24]	–
28.6	87.8	–	O=C(NS(=O)(=O)c1ccc(-c2ccc(Oc3ccccc3)cc2)cc1)c1cccc2ccccc12 [SZ35TA7]	–
